Experimental data published in the supplement of paper PMC10307832.

Columns and labels:
Test in all cases: relative viability (nuclei count vs DMSO), 5 days (fraction); higher = more cells survive
IU1-47 + Dasatinib = compound: CC1=CC(=C(N1C2=CC=C(C=C2)Cl)C)C(=O)CN3CCCCC3 [IU1-47] + Cc1nc(Nc2ncc(C(=O)Nc3c(C)cccc3Cl)s2)cc(N2CCN(CCO)CC2)n1 [Dasatinib] (partner 0.075 µM)
Procedure, shortened: (§1)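 After 5 days of treatment, lung cancer cells in 1536-well plates were fixed and stained in a single step (final 0.05% Triton X-100, 1% formaldehyde, 1 ug/ml Hoechst) and their nuclei counted on 4× images. Treatment had been applied by pin tool the day after seeding as one drug alone or as a fixed anchor-drug dose with five library-drug doses (not always all listed) in √10 steps. Relative viability is the nuclei count of treated wells divided by that of vehicle wells, and values are medians of duplicate plates.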

FG-4592 + Bortezomib = compound: Cc1nc(C(=O)NCC(=O)O)c(O)c2ccc(Oc3ccccc3)cc12 [FG-4592] + CC(C)C[C@H](NC(=O)[C@H](Cc1ccccc1)NC(=O)c1cnccn1)B(O)O [Bortezomib] (partner 0.002 µM)
Procedure, shortened: as §1

FG-4592 + Tozasertib = compound: Cc1nc(C(=O)NCC(=O)O)c(O)c2ccc(Oc3ccccc3)cc12 [FG-4592] + Cc1cc(Nc2cc(N3CCN(C)CC3)nc(Sc3ccc(NC(=O)C4CC4)cc3)n2)n[nH]1 [Tozasertib] (partner 0.1 µM)
Procedure, shortened: as §1

FG-4592 + Pemetrexed = compound: Cc1nc(C(=O)NCC(=O)O)c(O)c2ccc(Oc3ccccc3)cc12 [FG-4592] + Nc1nc2[nH]cc(CCc3ccc(C(=O)N[C@@H](CCC(=O)O)C(=O)O)cc3)c2c(=O)[nH]1 [Pemetrexed] (partner 0.2 µM)
Procedure, shortened: as §1

Row | Cell Line | relative viability (IU1-47 + Dasatinib; first compound 0.08 µM) | relative viability (IU1-47 + Dasatinib; first compound 0.253 µM) | relative viability (IU1-47 + Dasatinib; first compound 0.8 µM) | relative viability (IU1-47 + Dasatinib; first compound 2.53 µM) | relative viability (IU1-47 + Dasatinib; first compound 8 µM) | relative viability (FG-4592 + Bortezomib; first compound 0.253 µM) | relative viability (FG-4592 + Bortezomib; first compound 0.8 µM) | relative viability (FG-4592 + Bortezomib; first compound 2.53 µM) | relative viability (FG-4592 + Bortezomib; first compound 8 µM) | relative viability (FG-4592 + Tozasertib; first compound 0.08 µM) | relative viability (FG-4592 + Tozasertib; first compound 0.8 µM) | relative viability (FG-4592 + Tozasertib; first compound 2.53 µM) | relative viability (FG-4592 + Tozasertib; first compound 8 µM) | relative viability (FG-4592 + Pemetrexed; first compound 0.08 µM) | relative viability (FG-4592 + Pemetrexed; first compound 0.253 µM) | relative viability (FG-4592 + Pemetrexed; first compound 0.8 µM) | relative viability (FG-4592 + Pemetrexed; first compound 2.53 µM) | relative viability (FG-4592 + Pemetrexed; first compound 8 µM) | relative viability (FG-4592 + Bortezomib; first compound 0.08 µM) | relative viability (FG-4592 + Tozasertib; first compound 0.253 µM)
1 | NCI-H2347 | 0.307 | 0.307 | 0.318 | 0.285 | 0.342 | 0.623 | 0.806 | 0.782 | 1.14 | 0.415 | 0.621 | 0.315 | 0.52 | 0.411 | 0.417 | 0.439 | 0.425 | 0.478 | – | –
2 | NCI-H2405 | 0.21 | 0.234 | 0.208 | 0.206 | 0.208 | 0.894 | 0.998 | 0.922 | 0.952 | 0.631 | 0.763 | 0.735 | 0.757 | 0.81 | 1.01 | 0.949 | 0.792 | 0.984 | 0.906 | –
3 | NCI-H3122 | – | 0.816 | 0.854 | 0.892 | 1.01 | 1.02 | 1.13 | 1.07 | 1.07 | 0.38 | 0.348 | 0.418 | 0.35 | 0.197 | 0.191 | 0.194 | 0.187 | 0.211 | 1.03 | 0.361
4 | PC-3 [JPC-3] | 1.01 | 1.02 | 0.982 | 0.956 | 0.788 | 0.745 | 0.872 | 0.884 | 0.832 | 0.872 | 0.935 | 0.901 | 0.854 | 1.09 | 1.02 | – | 1.19 | 1.05 | 0.824 | 0.854
5 | PC-14 | 0.223 | 0.257 | 0.209 | 0.226 | 0.205 | 0.946 | 0.947 | 0.949 | 1.01 | 0.674 | 0.651 | 0.596 | 0.682 | 0.128 | 0.138 | 0.129 | 0.131 | 0.148 | 0.859 | 0.55
6 | RERF-LC-KJ | 0.926 | 0.947 | 0.817 | 0.877 | 0.781 | 0.975 | 0.967 | 1.11 | 1.06 | 0.485 | 0.578 | 0.543 | 0.463 | 0.466 | 0.472 | 0.481 | 0.486 | 0.498 | 0.99 | 0.448
7 | SK-LU-1 | 0.208 | 0.187 | 0.182 | 0.18 | 0.159 | 0.849 | 0.825 | 1.31 | 0.978 | 0.317 | 0.295 | 0.31 | 0.273 | 0.949 | 0.842 | 1.05 | 1.06 | 1.05 | – | 0.331
8 | SW 1573 | 0.498 | 0.524 | 0.584 | 0.551 | 0.577 | 0.954 | 0.963 | 1 | 1 | 0.205 | 0.207 | 0.171 | 0.198 | 0.753 | 0.638 | 0.805 | 0.809 | 0.535 | 1.04 | 0.173
